{"source": "paper PMC9127750", "about": "“Structure-based design of CDC42 effector interaction inhibitors for the treatment of cancer” (Cell reports, 2022)", "system": "WM3248 melanoma cells, 486 antibodies", "assay": "Reverse phase protein arrays (RPPA);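 on CA9.R.C RPPA level: ratio of treated to vehicle (0 µM) normalized linear protein signal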;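 on CD171.M.V RPPA level: ratio of treated to vehicle (0 µM) normalized linear protein signal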", "format": "cell-based, Human", "details": "10 uM", "source_text": "Pellets were snap frozen in liquid nitrogen and shipped to MD Anderson Cancer Center core RPPA facility for RPPA analysis (Table S5). Three biological replicates for each sample were generated.\nNomenclatures on the RPPA heatmaps: name_of_antibody.species_of_antibody.status_of_antibody. V - antibody validated; C - validation of antibody in progress; Q - antibody nonspecific; E – under evaluation; antibodies raised in M - mouse, G - goat, R - rabbit, or T - rat.", "note": "Where “and” joins values, the source holds several entries; their conditions need not be identical. Equal values may be shown once."}
{"smiles": "CN(C)c1cccc(Nc2cc(-c3ccccc3)nc(C3CCNCC3)n2)c1", "note": "[ARN22089, N1,N1-dimethyl-N3-(6-phenyl-2-(piperidin-4-yl)pyrimidin-4-yl)benzene-1,3-diamine]", "values": [{"measurement": "RPPA signal, antibody VEGFR.2_pY1175.R.C, Average", "setting": "average of 3 replicates", "value": 1.049}, {"measurement": "RPPA signal, antibody VHL.EPPK1.M.C, Average", "setting": "average of 3 replicates", "value": 1.196}, {"measurement": "RPPA signal, antibody VHL.R.C, Average", "setting": "average of 3 replicates", "value": 1.035}, {"measurement": "RPPA signal, antibody Vinculin.M.V, Average", "setting": "average of 3 replicates", "value": 0.966}, {"measurement": "RPPA signal, antibody WIPI1.R.C, Average", "setting": "average of 3 replicates", "value": 1.121}, {"measurement": "RPPA signal, antibody WIPI2.R.C, Average", "setting": "average of 3 replicates", "value": 0.943}, {"measurement": "RPPA signal, antibody WTAP.R.V, Average", "setting": "average of 3 replicates", "value": 1.119}, {"measurement": "RPPA signal, antibody Wee1.R.C, Average", "setting": "average of 3 replicates", "value": 1.020}, {"measurement": "RPPA signal, antibody Wee1_pS642.R.C, Average", "setting": "average of 3 replicates", "value": 0.998}, {"measurement": "RPPA signal, antibody XBP.1.G.C, Average", "setting": "average of 3 replicates", "value": 1.065}, {"measurement": "RPPA signal, antibody XIAP.R.C, Average", "setting": "average of 3 replicates", "value": 1.012}, {"measurement": "RPPA signal, antibody XPA.M.V, Average", "setting": "average of 3 replicates", "value": 1.058}, {"measurement": "RPPA signal, antibody XRCC1.R.C, Average", "setting": "average of 3 replicates", "value": 1.060}, {"measurement": "RPPA signal, antibody YAP_pS127.R.V, Average", "setting": "average of 3 replicates", "value": 0.978}, {"measurement": "RPPA signal, antibody YB1_pS102.R.V, Average", "setting": "average of 3 replicates", "value": 0.958}, {"measurement": "RPPA signal, antibody YES1.R.V, Average", "setting": "average of 3 replicates", "value": 1.020}, {"measurement": "RPPA signal, antibody YTHDF2.R.V, Average", "setting": "average of 3 replicates", "value": 0.990}, {"measurement": "RPPA signal, antibody YTHDF3.R.C, Average", "setting": "average of 3 replicates", "value": 1.018}, {"measurement": "RPPA signal, antibody ZAP.70.R.V, Average", "setting": "average of 3 replicates", "value": 1.001}, {"measurement": "RPPA signal, antibody ZEB1.R.V, Average", "setting": "average of 3 replicates", "value": 1.024}, {"measurement": "RPPA signal, antibody TSC1.R.C", "setting": "individual replicates", "value": "0.828 and 0.939"}, {"measurement": "RPPA signal, antibody TTF1.R.V", "setting": "individual replicates", "value": "0.920 and 0.873 and 1.035"}, {"measurement": "RPPA signal, antibody TUFM.R.V", "setting": "individual replicates", "value": "1.384 and 1.533"}, {"measurement": "RPPA signal, antibody Tuberin.R.V", "setting": "individual replicates", "value": "1.063 and 0.958 and 0.778"}, {"measurement": "RPPA signal, antibody Tuberin_pT1462.R.V", "setting": "individual replicates", "value": "1.389 and 0.896"}, {"measurement": "RPPA signal, antibody Twist.M.C", "setting": "individual replicates", "value": "1.022 and 1.114"}, {"measurement": "RPPA signal, antibody Tyro3.R.V", "setting": "individual replicates", "value": "1.207 and 1.432 and 1.052"}, {"measurement": "RPPA signal, antibody U.Histone.H2B.R.C", "setting": "individual replicates", "value": "0.675 and 0.846 and 0.974"}, {"measurement": "RPPA signal, antibody UBAC1.R.V", "setting": "individual replicates", "value": "0.909 and 0.974 and 0.962"}, {"measurement": "RPPA signal, antibody UBQLN4.M.C", "setting": "individual replicates", "value": "1.002 and 0.908 and 1.014"}, {"measurement": "RPPA signal, antibody UGT1A.M.V", "setting": "individual replicates", "value": "1.078 and 1.131 and 1.024"}, {"measurement": "RPPA signal, antibody ULK1_pS757.R.C", "setting": "individual replicates", "value": "0.907 and 0.952"}, {"measurement": "RPPA signal, antibody UQCRC2.M.C", "setting": "individual replicates", "value": "0.984 and 1.001 and 0.779"}, {"measurement": "RPPA signal, antibody UVRAG.R.C", "setting": "individual replicates", "value": "0.941 and 0.945 and 1.016"}, {"measurement": "RPPA signal, antibody VASP.R.V", "setting": "individual replicates", "value": "0.853 and 0.873 and 0.935"}, {"measurement": "RPPA signal, antibody VAV1.R.C", "setting": "individual replicates", "value": "0.917 and 0.930 and 0.971"}, {"measurement": "RPPA signal, antibody VEGFR.2.R.V", "setting": "individual replicates", "value": "0.830 and 0.863 and 1.064"}, {"measurement": "RPPA signal, antibody VEGFR.2_pY1175.R.C", "setting": "individual replicates", "value": "1.135 and 1.035 and 0.978"}, {"measurement": "RPPA signal, antibody VHL.EPPK1.M.C", "setting": "individual replicates", "value": "1.361 and 1.047"}, {"measurement": "RPPA signal, antibody VHL.R.C", "setting": "individual replicates", "value": "1.048 and 1.060 and 0.997"}, {"measurement": "RPPA signal, antibody Vinculin.M.V", "setting": "individual replicates", "value": "0.834 and 1.032 and 1.034"}, {"measurement": "RPPA signal, antibody WIPI1.R.C", "setting": "individual replicates", "value": "1.084 and 1.260 and 1.018"}, {"measurement": "RPPA signal, antibody WIPI2.R.C", "setting": "individual replicates", "value": "1.004 and 0.919 and 0.906"}, {"measurement": "RPPA signal, antibody WTAP.R.V", "setting": "individual replicates", "value": "0.973 and 1.303 and 1.081"}, {"measurement": "RPPA signal, antibody Wee1.R.C", "setting": "individual replicates", "value": "0.837 and 1.193 and 1.031"}, {"measurement": "RPPA signal, antibody Wee1_pS642.R.C", "setting": "individual replicates", "value": "0.842 and 1.057"}, {"measurement": "RPPA signal, antibody XBP.1.G.C", "setting": "individual replicates", "value": "1.054 and 1.065 and 1.076"}, {"measurement": "RPPA signal, antibody XIAP.R.C", "setting": "individual replicates", "value": "0.980 and 0.995 and 1.063"}, {"measurement": "RPPA signal, antibody XPA.M.V", "setting": "individual replicates", "value": "0.998 and 1.083"}, {"measurement": "RPPA signal, antibody XPF.R.C", "setting": "individual replicates", "value": "1.061 and 1.058 and 1.015"}, {"measurement": "RPPA signal, antibody XRCC1.R.C", "setting": "individual replicates", "value": "1.098 and 1.017"}, {"measurement": "RPPA signal, antibody YAP.R.C", "setting": "individual replicates", "value": "1.046 and 1.136 and 1.017"}, {"measurement": "RPPA signal, antibody YAP_pS127.R.V", "setting": "individual replicates", "value": "0.857 and 1.020 and 1.056"}, {"measurement": "RPPA signal, antibody YB1_pS102.R.V", "setting": "individual replicates", "value": "0.792 and 0.995"}, {"measurement": "RPPA signal, antibody YES1.R.V", "setting": "individual replicates", "value": "0.963 and 1.023"}, {"measurement": "RPPA signal, antibody YTHDF2.R.V", "setting": "individual replicates", "value": "0.973 and 0.926"}, {"measurement": "RPPA signal, antibody YTHDF3.R.C", "setting": "individual replicates", "value": "1.046 and 1.052 and 0.954"}, {"measurement": "RPPA signal, antibody ZAP.70.R.V", "setting": "individual replicates", "value": "0.965 and 0.999"}, {"measurement": "RPPA signal, antibody ZEB1.R.V", "setting": "individual replicates", "value": "0.993 and 0.988"}, {"measurement": "C.Raf.R.C RPPA level", "setting": "replicates", "value": "1.022 and 0.897 and 0.901"}, {"measurement": "C.Raf_pS338.R.V RPPA level", "setting": "replicates", "value": "0.937 and 0.962"}, {"measurement": "CA9.R.C RPPA level", "setting": "replicates", "value": "0.963 and 0.920 and 1.058"}, {"measurement": "CD2.M.C RPPA level", "setting": "replicates", "value": "1.046 and 1.013"}, {"measurement": "CD4.R.V RPPA level", "setting": "replicates", "value": "0.841 and 0.982 and 0.984"}, {"measurement": "CD5.M.C RPPA level", "setting": "replicates", "value": "1.032 and 1.016"}, {"measurement": "CD20.R.C RPPA level", "setting": "replicates", "value": "0.915 and 1.113 and 1.048"}, {"measurement": "CD26.R.V RPPA level", "setting": "replicates", "value": "0.862 and 0.937 and 1.046"}, {"measurement": "CD29.M.V RPPA level", "setting": "replicates", "value": "1.013 and 0.983 and 1.052"}, {"measurement": "CD31.M.V RPPA level", "setting": "replicates", "value": "1.033 and 1.057 and 1.013"}, {"measurement": "CD38.R.C RPPA level", "setting": "replicates", "value": "0.895 and 0.963"}, {"measurement": "CD44.R.C RPPA level", "setting": "replicates", "value": "1.029 and 1.050"}, {"measurement": "CD45.M.V RPPA level", "setting": "replicates", "value": "1.006 and 1.019"}, {"measurement": "CD49b.M.V RPPA level", "setting": "replicates", "value": "1.003 and 0.999"}, {"measurement": "CD68.M.C RPPA level", "setting": "replicates", "value": "1.022 and 1.011"}, {"measurement": "CD74.M.V RPPA level", "setting": "replicates", "value": "0.984 and 1.053"}, {"measurement": "CD134.R.V RPPA level", "setting": "replicates", "value": "1.005 and 1.057 and 0.995"}, {"measurement": "CD171.M.V RPPA level", "setting": "replicates", "value": "0.591 and 0.987 and 1.115"}, {"measurement": "CDK1_pT14.R.C RPPA level", "setting": "replicates", "value": "1.201 and 0.649 and 0.946"}, {"measurement": "CDK9.R.V RPPA level", "setting": "replicates", "value": "1.078 and 0.919"}, {"measurement": "CDKN2A.R.C RPPA level", "setting": "replicates", "value": "1.006 and 1.160"}, {"measurement": "CDT1.R.V RPPA level", "setting": "replicates", "value": "0.973 and 1.157 and 1.014"}]}
